{"source": "paper PMC12314110", "about": "“Evaluation of Potential Effects of CYP3A Inhibition and CYP3A Induction on the Pharmacokinetics of Fruquintinib in Healthy Subjects” (Clinical Pharmacology in Drug Development, 2025)", "key": {"[1]": {"experiment": "Part B: PK of single-dose fruquintinib alone and with rifampin (CYP3A induction)", "type": "in vivo, human", "conditions": "for AUC(0-inf) / AUC(0-t) / Cmax / half-life / Tmax / t1/2: fruquintinib in plasma; for AUC(0-inf) / AUC(0-t) / Cmax / half-life / Tmax / t1/2 / CL/F (apparent oral clearance): Part B; for AUC(0-inf) / AUC(0-t) / Cmax / half-life / t1/2 / CL/F (apparent oral clearance): arithmetic mean (SD); for half-life / Tmax: plasma; for Tmax: median (minimum‐maximum), read-out: tmax; for CL/F (apparent oral clearance): fruquintinib", "excerpt": "(§1) This was a single‐center, open‐label, 2‐part (Part A and Part B), 2‐period, fixed‐sequence study conducted in healthy male and female subjects. Parts A and B evaluated the effect of the CYP3A inhibitor itraconazole and the CYP3A inducer rifampin on the PK profile of fruquintinib, respectively. Each part consisted of a screening phase, a treatment phase (Period 1 and Period 2), and an end‐of‐study (EOS) phase. Screening occurred within 21 days before the first study drug administration. There was at least a 14‐day washout of fruquintinib between treatment periods. PK samples were collected before dosing and over 168 hours following the fruquintinib dose in Part A (with itraconazole) and Part B (with rifampin). Part A and Part B were enrolled independently.\nIn Part B, subjects were administered fruquintinib alone in Treatment Period 1 and in combination with rifampin in Treatment Period 2. Study Day 1 was considered as the start of Treatment Period 1, and Study Day 8 was considered as the start of Treatment Period 2. On Study Day 1, a single dose of fruquintinib 5 mg by mouth was administered under fasted conditions, and on Study Day 15, a single dose of fruquintinib 5 mg was administered by mouth under fasted conditions alongside rifampin. Starting on Study Day 8, rifampin 600 mg was dosed by mouth once daily for 14 consecutive days, 7 days before fruquintinib dosing and 6 days after fruquintinib dosing, to ensure that induction was maintained throughout the PK sampling period. Subjects therefore received rifampin from Study Day 8 to Study Day 21. Absorption of rifampin is reduced by approximately 30% when the drug is ingested with food.[13] Therefore, rifampin was administered at least 1 hour before breakfast when given alone and under fasted conditions when administered with fruquintinib. Breakfast was given at least 1 hour after the rifampin doses on Study Days 8‐14 and Study Days 16‐21. On Study Day 15, subjects received both treatments under fasted conditions, and rifampin was administered 1hour before administration of a single dose of fruquintinib 5 mg by mouth. Subjects were discharged after completion of EOS procedures on Study Day 22 or at early withdrawal.\n(§2) Blood samples for determination of fruquintinib and metabolite M11 plasma concentrations were collected before dosing and at 0.5, 1, 1.5, 2, 3, 4, 6, 8, 12, 24, 36, 48, 72, 96, 120, 144, and 168 hours after fruquintinib dosing. Plasma samples were analyzed by LabCorp Bioanalytical (Indianapolis, IN) using a validated liquid chromatography with tandem mass spectrometry assay method with an analytical range of 1.00 ng/mL (lower limit of quantitation) to 750 ng/mL (upper limit of quantitation) for both fruquintinib and M11.[6] Interrun variability was 6.3% or less and 13.8% or less for fruquintinib and M11, respectively. Quality control samples at 4 concentrations (3, 30, 300, and 600 ng/mL) were assayed along with study samples, and the bias quality control sample concentrations deviated by ±2.0% and ±2.7% from the nominal concentrations for fruquintinib and M11, respectively.\n(§3) PK parameters were determined by noncompartmental analysis and included maximum plasma concentration (Cmax); time to reach Cmax (tmax); area under the plasma concentration‐time curve (AUC) from time 0 to the time of the last measurable concentration (AUC0‐t); AUC from time 0 to infinity (AUC0‐inf); half‐life (t1/2); and the metabolite‐to‐parent ratios for Cmax, AUC0‐t, and AUC0‐inf. Apparent oral clearance and volume of distribution were also estimated for fruquintinib.\nFor Part A, the effect of itraconazole based on the PK parameters of fruquintinib was evaluated using a linear mixed‐effect model with treatment (ie, fruquintinib with itraconazole [test] and fruquintinib alone [reference]) as fixed effects and subject as a random effect. A similar inferential analysis was performed for Part B, but fruquintinib with rifampin was the test group. […]"}, "[2]": {"experiment": "Part A: PK of single-dose fruquintinib alone and with itraconazole (CYP3A inhibition)", "type": "in vivo, human", "conditions": "for AUC(0-inf) / AUC(0-t) / Tmax / Cmax / half-life / t1/2: fruquintinib in plasma; for AUC(0-inf) / AUC(0-t) / Tmax / Cmax / half-life / t1/2 / CL/F (apparent oral clearance): Part A, n = 14; for AUC(0-inf) / AUC(0-t) / Cmax / half-life / t1/2 / CL/F (apparent oral clearance): arithmetic mean (SD); for Tmax: median (minimum‐maximum); for half-life: plasma; for CL/F (apparent oral clearance): fruquintinib", "excerpt": "as §1\nIn Part A, subjects were administered fruquintinib alone in Treatment Period 1 and in combination with itraconazole in Treatment Period 2. Study Day 1 was considered the start of Treatment Period 1, and Study Day 15 was considered the start of Treatment Period 2. On Study Day 1, subjects received a single dose of fruquintinib 5 mg by mouth under fasted conditions (subjects fasted for at least 10 hours before fruquintinib dosing and 4 hours after), and on Study Day 19 subjects received a second single dose of fruquintinib 5 mg by mouth under fasted conditions, alongside itraconazole. On Study Day 15, subjects began a regimen of itraconazole 200 mg by mouth twice a day, followed by once daily dosing on Study Days 16‐25. A dose of 200 mg was selected, with a loading dose as part of a 5‐day lead‐in (twice daily for 1 day, once daily for 4 days) to achieve appropriate inhibition of CYP3A before dosing with fruquintinib.[10] Once‐daily dosing of itraconazole for an additional 5 days throughout the fruquintinib PK sampling period was continued to maintain CYP3A inhibition.[11]\nAs itraconazole oral bioavailability is maximal when the capsules are taken immediately after a full meal,[12] it was administered under fed conditions except when coadministered with fruquintinib on Study Day 19. Itraconazole doses were administered 30 minutes after the start of breakfast on Study Days 15‐18 and Study Days 20‐25. On Study Day 19, subjects received both treatments under fasted conditions, and itraconazole was administered 1 hour before administration of a single dose of fruquintinib 5 mg by mouth. Subjects were discharged after completion of EOS procedures on Study Day 26 or at early withdrawal.\nas §2\nas §3, with “fruquintinib. […]” for “fruquintinib.”"}, "[3]": {"conditions": "both sexes, human, oral, fruquintinib 5 mg + rifampin 600 mg, n = 13"}, "[4]": {"conditions": "both sexes, human, oral, fruquintinib alone 5 mg, n = 13"}, "[5]": {"conditions": "fruquintinib 5 mg + rifampin 600 mg, n = 13"}, "[6]": {"conditions": "fruquintinib alone 5 mg, n = 13"}, "[7]": {"conditions": "both sexes, human, oral, fruquintinib 5 mg + itraconazole 200 mg"}, "[8]": {"conditions": "both sexes, human, oral, fruquintinib alone 5 mg"}, "[9]": {"conditions": "fruquintinib 5 mg + itraconazole 200 mg"}}, "data": [{"smiles": "CNC(=O)c1c(C)oc2cc(Oc3ncnc4cc(OC)c(OC)cc34)ccc12", "note": "[Fruquintinib]", "values": [{"measurement": "AUC(0-inf)", "setting": "[1]; [3]", "value": 2070, "unit": "ng·h/mL"}, {"measurement": "AUC(0-t)", "setting": "[1]; [3]", "value": 2020, "unit": "ng·h/mL"}, {"measurement": "Cmax", "setting": "[1]; both sexes, human, oral, fruquintinib 5 mg + rifampin 600 mg, n = 13, read-out: Cmax", "value": 108, "unit": "ng/mL"}, {"measurement": "AUC(0-inf)", "setting": "[1]; [4]", "value": 5890, "unit": "ng·h/mL"}, {"measurement": "AUC(0-t)", "setting": "[1]; [4]", "value": 5640, "unit": "ng·h/mL"}, {"measurement": "half-life", "setting": "[1]; both sexes, human, oral, 5 mg, fruquintinib alone 5 mg, n = 13", "value": "~34", "unit": "h"}, {"measurement": "Tmax", "setting": "[1]; both sexes, human, oral, 5 mg, fruquintinib alone 5 mg, n = 14", "value": 3.33, "unit": "h"}, {"measurement": "half-life", "setting": "[1]; [3]", "value": "~14", "unit": "h"}, {"measurement": "Tmax", "setting": "[1]; [3]", "value": 3, "unit": "h"}, {"measurement": "reduction of fruquintinib AUCs (AUC0‐t and AUC0‐inf)", "setting": "[1]; coadministration with rifampin versus fruquintinib alone", "value": 65, "unit": "%"}, {"measurement": "t1/2", "setting": "[1]; [5]", "value": "14.0 (3.06) hour"}, {"measurement": "t1/2", "setting": "[1]; [6]", "value": "33.9 (7.76) hour"}, {"measurement": "Cmax", "setting": "[1]; fruquintinib alone, single 5 mg by mouth, fasted, n = 14", "value": "123 (25.5) ng/mL"}, {"measurement": "CL/F (apparent oral clearance)", "setting": "[1]; [5]", "value": "41.9 (7.46) mL/min"}, {"measurement": "CL/F (apparent oral clearance)", "setting": "[1]; [6]", "value": "14.5 (2.22) mL/min"}, {"measurement": "AUC(0-inf)", "setting": "[2]; [7]", "value": 6460, "unit": "ng·h/mL"}, {"measurement": "AUC(0-t)", "setting": "[2]; [7]", "value": 6040, "unit": "ng·h/mL"}, {"measurement": "Tmax", "setting": "[2]; [7]", "value": 4, "unit": "h"}, {"measurement": "AUC(0-inf)", "setting": "[2]; [8]", "value": 5960, "unit": "ng·h/mL"}, {"measurement": "AUC(0-t)", "setting": "[2]; [8]", "value": 5730, "unit": "ng·h/mL"}, {"measurement": "Tmax", "setting": "[2]; [8]", "value": 2, "unit": "h"}, {"measurement": "Cmax", "setting": "[2]; both sexes, human, oral, fruquintinib alone, single 5 mg by mouth, fasted, read-out: Cmax", "value": 133, "unit": "ng/mL"}, {"measurement": "half-life", "setting": "[2]; both sexes, human, oral, 5 mg, fruquintinib alone 5 mg", "value": "~34", "unit": "h"}, {"measurement": "half-life", "setting": "[2]; [7]", "value": "~41", "unit": "h"}, {"measurement": "increase of fruquintinib AUCs", "setting": "[2]; coadministration with itraconazole versus fruquintinib alone", "value": "approximately 10%"}, {"measurement": "delay of median tmax of fruquintinib", "setting": "[2]; following coadministration of itraconazole", "value": 2, "unit": "h"}, {"measurement": "Cmax", "setting": "[2]; [9]", "value": "122 (22.8) ng/mL"}, {"measurement": "t1/2", "setting": "[2]; [9]", "value": "41.4 (5.96) hour"}, {"measurement": "t1/2", "setting": "[2]; fruquintinib alone 5 mg", "value": "33.9 (6.96) hour"}, {"measurement": "CL/F (apparent oral clearance)", "setting": "[2]; [9]", "value": "13.3 (2.59) mL/min"}, {"measurement": "CL/F (apparent oral clearance)", "setting": "[2]; fruquintinib alone 5 mg", "value": "14.9 (4.14) mL/min"}]}]}
